Reference: ChEMBL document CHEMBL5465560, “Selectivity Literature for EUbOPEN Chemogenomic Library” (2024)

Assays:
[1] = target: cAMP-dependent protein kinase catalytic subunit alpha (Homo sapiens, UniProt P17612); test: Selectivity interaction (KinomeScan (DiscoverX)) EUB0000229b PRKACA; details: at 10 µM
[2] = target: Serine/threonine-protein kinase MARK1 (Homo sapiens) (UniProt Q9P0L2); details: at 10 µM
[3] = target: Dual specificity protein kinase CLK1 (Homo sapiens, UniProt P49759); test: Selectivity interaction (Kinase panel (Z-LYTE Assay)) EUB0001632a CLK1; details: at 10 µM
[4] = target: Tyrosine-protein kinase Fyn (Homo sapiens) (UniProt P06241); test: Selectivity interaction (LanthaScreen Eu Kinase Binding Assay) EUB0001632a FYN; details: at 10 µM
[5] = target: Tyrosine-protein kinase ABL2 (Homo sapiens, UniProt P42684); test: Selectivity interaction (Kinase panel (Z-LYTE Assay)) EUB0001632a ABL2; details: at 10 µM
[6] = target: Histone-lysine N-methyltransferase EZH2 (Homo sapiens) (UniProt Q15910); test: Selectivity interaction (Transferase panel (protein, RNA, and DNA methyltransferases. and EP300 (acetyltransferase))) EUB0000270b EZH2
[7] = target: Tyrosine-protein kinase Lyn (Homo sapiens, UniProt P07948); test: Selectivity interaction (ActivX KiNativ screen (kinase selectivity in THP-1 cell lysates)) EUB0000639a LYN; assay type: subcellular; details: lysate, at 1 µM
[8] = target: Serine/threonine-protein kinase WNK3 (Homo sapiens) (UniProt Q9BYP7); test: Selectivity interaction (ActivX KiNativ screen (kinase selectivity in THP-1 cell lysates)) EUB0000639a WNK3; assay type: subcellular; details: lysate
[9] = target: Ribosomal protein S6 kinase alpha-3 (Homo sapiens, UniProt P51812); test: Selectivity interaction (ActivX KiNativ screen (kinase selectivity in THP-1 cell lysates)) EUB0000639a RPS6KA3; assay type: subcellular; details: lysate, at 0.2 µM
[10] = target: Tyrosine-protein kinase JAK1 (Homo sapiens, UniProt P23458); test: Selectivity interaction (SelectScreen profiling (Invitrogen)) EUB0000607a JAK1; details: at 2 µM
[11] = target: Cannabinoid receptor 2 (Homo sapiens) (UniProt P34972); test: Selectivity interaction (Panel of non-epigenetic targets (kinases, GPCRs, ion channels, and transporters, Eurofins) ) EUB0000271b CNR2; details: at 1 µM
[12] = target: T1, MAP/microtubule affinity-regulating kinase 4 (Homo sapiens) (UniProt Q96L34); test: Selectivity interaction (KinomeScan (DiscoverX)) EUB0000695a MARK4; details: at 100 nM
T1 sequence (whole entry): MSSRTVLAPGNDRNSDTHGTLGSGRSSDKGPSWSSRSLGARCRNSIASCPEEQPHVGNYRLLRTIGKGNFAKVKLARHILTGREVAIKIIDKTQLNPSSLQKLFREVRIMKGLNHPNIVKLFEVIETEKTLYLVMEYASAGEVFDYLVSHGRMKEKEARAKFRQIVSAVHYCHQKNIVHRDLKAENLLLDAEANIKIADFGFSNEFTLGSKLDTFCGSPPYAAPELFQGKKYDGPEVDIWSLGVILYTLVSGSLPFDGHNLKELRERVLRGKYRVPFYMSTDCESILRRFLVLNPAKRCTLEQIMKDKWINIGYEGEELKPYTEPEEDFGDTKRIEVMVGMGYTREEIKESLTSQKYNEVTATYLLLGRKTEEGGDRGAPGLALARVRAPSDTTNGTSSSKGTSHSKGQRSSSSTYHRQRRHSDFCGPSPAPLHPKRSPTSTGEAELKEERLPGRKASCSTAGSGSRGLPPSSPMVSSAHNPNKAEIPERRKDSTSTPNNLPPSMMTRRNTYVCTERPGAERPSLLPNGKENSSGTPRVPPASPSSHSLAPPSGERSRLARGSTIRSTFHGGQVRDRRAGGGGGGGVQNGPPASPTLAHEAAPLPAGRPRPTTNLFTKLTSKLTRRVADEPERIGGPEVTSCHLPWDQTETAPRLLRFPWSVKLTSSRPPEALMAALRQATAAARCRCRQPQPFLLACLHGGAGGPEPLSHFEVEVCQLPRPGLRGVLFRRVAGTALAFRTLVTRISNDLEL

[13] = target: Cyclin-dependent kinase 9 (Homo sapiens, UniProt P50750); test: Selectivity interaction (KinomeScan (DiscoverX)) EUB0000045b CDK9
[14] = target: T2, Hormonally up-regulated neu tumor-associated kinase (Homo sapiens) (UniProt P57058); test: Selectivity interaction (KinomeScan (DiscoverX)) EUB0001619a HUNK; details: at 1 µM
T2 sequence (whole entry): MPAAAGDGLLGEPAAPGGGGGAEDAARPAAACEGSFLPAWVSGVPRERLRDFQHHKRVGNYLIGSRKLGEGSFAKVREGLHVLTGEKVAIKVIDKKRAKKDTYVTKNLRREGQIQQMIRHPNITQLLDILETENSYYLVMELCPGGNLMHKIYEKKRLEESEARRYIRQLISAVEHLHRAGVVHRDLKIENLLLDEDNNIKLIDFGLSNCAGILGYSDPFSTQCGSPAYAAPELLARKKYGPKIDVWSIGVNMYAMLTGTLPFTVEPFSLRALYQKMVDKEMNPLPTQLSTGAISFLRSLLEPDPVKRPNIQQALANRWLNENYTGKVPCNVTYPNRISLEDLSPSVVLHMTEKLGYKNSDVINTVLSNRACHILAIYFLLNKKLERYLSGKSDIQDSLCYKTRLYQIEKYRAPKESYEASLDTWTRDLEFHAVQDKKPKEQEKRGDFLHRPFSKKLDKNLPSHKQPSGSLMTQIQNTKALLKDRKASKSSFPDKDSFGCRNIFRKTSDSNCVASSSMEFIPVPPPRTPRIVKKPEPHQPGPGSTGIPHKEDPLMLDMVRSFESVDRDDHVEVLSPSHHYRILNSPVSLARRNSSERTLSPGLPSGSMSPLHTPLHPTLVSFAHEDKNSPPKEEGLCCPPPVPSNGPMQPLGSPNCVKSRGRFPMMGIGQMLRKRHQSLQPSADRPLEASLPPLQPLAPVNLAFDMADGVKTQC

Serine/threonine-protein kinase WNK3 (Homo sapiens), sequence (Q9BYP7 whole entry): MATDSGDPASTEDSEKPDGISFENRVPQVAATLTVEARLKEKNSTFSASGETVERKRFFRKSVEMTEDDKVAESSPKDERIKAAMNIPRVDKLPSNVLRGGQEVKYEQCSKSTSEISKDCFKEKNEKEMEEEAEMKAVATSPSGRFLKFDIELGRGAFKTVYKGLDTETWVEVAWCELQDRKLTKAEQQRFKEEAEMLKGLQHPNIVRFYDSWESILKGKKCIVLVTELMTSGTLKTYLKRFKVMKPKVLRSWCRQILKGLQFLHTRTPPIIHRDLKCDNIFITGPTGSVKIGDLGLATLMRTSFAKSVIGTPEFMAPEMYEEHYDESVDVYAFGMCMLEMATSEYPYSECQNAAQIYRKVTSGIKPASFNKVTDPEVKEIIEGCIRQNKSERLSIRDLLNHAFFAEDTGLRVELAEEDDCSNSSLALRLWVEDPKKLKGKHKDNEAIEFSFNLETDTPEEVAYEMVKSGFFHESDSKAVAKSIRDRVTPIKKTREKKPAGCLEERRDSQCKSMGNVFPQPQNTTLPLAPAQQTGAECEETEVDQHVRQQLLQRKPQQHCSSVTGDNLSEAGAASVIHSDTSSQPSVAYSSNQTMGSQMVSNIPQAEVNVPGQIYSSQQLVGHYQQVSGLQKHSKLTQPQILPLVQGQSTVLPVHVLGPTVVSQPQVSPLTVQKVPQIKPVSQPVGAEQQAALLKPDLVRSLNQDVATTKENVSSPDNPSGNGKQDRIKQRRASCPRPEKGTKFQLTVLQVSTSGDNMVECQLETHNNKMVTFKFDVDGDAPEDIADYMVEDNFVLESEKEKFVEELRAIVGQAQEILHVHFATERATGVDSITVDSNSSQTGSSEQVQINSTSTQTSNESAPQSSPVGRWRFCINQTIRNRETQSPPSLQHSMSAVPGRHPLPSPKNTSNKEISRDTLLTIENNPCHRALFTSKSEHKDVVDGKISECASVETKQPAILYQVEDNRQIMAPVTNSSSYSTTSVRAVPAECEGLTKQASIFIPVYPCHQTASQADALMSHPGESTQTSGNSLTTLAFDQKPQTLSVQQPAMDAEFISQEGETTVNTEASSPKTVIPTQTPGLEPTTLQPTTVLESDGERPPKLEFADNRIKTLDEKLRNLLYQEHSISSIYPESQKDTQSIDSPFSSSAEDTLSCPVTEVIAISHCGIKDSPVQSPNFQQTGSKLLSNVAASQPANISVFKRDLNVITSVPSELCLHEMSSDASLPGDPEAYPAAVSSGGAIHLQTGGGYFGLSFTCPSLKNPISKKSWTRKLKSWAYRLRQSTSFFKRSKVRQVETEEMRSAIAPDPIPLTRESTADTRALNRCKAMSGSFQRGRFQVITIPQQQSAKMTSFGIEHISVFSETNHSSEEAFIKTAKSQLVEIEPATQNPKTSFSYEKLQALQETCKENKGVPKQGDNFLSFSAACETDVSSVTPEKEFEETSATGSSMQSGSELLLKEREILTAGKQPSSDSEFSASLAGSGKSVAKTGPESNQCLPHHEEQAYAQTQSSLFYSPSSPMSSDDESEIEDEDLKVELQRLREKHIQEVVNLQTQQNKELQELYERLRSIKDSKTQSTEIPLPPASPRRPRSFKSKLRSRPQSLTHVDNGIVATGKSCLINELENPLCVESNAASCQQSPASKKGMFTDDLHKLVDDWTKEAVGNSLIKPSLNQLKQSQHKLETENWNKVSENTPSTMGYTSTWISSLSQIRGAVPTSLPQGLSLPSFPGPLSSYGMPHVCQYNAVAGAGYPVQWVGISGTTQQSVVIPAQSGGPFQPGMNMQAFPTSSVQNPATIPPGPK
Histone-lysine N-methyltransferase EZH2 (Homo sapiens), sequence (Q15910 whole entry, looked up): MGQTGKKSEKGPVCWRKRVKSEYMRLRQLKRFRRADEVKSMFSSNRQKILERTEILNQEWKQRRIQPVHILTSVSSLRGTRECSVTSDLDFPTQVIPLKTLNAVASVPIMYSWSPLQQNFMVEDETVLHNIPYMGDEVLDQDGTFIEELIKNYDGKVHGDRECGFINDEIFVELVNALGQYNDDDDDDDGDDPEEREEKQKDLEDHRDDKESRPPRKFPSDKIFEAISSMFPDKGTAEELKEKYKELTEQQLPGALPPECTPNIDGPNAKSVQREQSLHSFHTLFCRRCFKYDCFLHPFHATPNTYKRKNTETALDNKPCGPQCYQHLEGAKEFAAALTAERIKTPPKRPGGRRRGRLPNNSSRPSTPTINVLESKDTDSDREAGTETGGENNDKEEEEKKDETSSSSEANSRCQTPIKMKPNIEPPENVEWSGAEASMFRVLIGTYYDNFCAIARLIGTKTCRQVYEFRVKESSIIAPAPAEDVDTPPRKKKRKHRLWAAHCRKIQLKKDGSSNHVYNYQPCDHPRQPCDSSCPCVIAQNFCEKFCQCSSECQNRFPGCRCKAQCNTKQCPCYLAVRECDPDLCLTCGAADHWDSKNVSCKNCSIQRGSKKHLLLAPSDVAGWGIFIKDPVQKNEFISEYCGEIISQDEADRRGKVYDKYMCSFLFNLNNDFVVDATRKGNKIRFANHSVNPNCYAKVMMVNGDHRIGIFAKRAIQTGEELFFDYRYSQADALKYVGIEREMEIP
Cyclin-dependent kinase 9, sequence (P50750 whole entry): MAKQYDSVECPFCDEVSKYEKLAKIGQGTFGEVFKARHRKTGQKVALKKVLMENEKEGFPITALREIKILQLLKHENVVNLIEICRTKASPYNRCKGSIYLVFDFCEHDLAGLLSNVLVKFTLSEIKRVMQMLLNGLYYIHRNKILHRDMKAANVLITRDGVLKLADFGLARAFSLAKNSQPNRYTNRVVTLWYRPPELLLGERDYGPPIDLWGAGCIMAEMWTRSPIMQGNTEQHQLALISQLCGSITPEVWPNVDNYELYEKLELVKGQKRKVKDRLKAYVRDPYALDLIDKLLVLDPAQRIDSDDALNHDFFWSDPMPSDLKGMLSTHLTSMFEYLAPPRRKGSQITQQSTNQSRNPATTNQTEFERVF
Dual specificity protein kinase CLK1, sequence (P49759 whole entry, looked up): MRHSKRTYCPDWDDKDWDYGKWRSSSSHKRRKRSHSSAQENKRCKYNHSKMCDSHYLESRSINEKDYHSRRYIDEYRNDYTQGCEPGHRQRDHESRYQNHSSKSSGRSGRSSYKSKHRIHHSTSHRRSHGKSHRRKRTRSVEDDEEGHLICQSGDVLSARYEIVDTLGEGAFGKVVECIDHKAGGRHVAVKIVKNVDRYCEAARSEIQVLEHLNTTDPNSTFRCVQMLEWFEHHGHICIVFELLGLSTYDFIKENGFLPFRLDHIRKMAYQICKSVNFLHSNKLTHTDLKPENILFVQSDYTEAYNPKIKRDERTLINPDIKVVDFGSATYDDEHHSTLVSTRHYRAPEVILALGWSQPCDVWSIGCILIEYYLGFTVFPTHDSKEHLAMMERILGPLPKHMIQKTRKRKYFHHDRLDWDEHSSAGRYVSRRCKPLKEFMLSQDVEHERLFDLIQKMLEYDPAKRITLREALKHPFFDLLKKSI
Ribosomal protein S6 kinase alpha-3, sequence (P51812 whole entry): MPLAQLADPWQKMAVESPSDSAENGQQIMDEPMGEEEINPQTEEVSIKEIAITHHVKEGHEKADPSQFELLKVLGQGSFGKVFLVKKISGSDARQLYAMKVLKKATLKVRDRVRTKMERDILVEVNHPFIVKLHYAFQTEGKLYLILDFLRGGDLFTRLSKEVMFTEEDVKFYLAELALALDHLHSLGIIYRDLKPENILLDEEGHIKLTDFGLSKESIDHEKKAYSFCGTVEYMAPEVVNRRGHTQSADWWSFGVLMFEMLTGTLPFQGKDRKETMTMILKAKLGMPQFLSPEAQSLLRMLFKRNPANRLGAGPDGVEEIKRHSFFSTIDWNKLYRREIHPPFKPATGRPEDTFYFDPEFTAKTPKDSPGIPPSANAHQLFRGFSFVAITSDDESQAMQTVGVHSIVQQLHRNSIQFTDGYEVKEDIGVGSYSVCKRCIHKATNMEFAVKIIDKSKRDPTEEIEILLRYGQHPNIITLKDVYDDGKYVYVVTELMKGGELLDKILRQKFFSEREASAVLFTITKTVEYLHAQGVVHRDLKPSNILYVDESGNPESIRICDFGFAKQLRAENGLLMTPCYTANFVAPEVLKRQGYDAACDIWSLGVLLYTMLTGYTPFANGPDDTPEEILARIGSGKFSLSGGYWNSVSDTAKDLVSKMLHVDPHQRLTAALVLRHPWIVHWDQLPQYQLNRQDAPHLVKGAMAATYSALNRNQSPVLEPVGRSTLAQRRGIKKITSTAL
Cannabinoid receptor 2 (Homo sapiens), sequence (P34972 whole entry): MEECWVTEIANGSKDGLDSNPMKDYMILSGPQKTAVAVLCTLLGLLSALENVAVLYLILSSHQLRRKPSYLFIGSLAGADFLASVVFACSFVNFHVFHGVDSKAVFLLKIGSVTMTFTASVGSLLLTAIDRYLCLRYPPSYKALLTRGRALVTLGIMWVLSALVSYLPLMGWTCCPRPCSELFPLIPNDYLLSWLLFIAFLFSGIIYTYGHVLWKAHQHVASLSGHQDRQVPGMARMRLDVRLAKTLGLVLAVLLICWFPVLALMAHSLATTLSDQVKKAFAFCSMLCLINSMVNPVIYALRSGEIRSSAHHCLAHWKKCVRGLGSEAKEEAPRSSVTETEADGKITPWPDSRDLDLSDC
Tyrosine-protein kinase Lyn, sequence (P07948 2-512 limits assumed): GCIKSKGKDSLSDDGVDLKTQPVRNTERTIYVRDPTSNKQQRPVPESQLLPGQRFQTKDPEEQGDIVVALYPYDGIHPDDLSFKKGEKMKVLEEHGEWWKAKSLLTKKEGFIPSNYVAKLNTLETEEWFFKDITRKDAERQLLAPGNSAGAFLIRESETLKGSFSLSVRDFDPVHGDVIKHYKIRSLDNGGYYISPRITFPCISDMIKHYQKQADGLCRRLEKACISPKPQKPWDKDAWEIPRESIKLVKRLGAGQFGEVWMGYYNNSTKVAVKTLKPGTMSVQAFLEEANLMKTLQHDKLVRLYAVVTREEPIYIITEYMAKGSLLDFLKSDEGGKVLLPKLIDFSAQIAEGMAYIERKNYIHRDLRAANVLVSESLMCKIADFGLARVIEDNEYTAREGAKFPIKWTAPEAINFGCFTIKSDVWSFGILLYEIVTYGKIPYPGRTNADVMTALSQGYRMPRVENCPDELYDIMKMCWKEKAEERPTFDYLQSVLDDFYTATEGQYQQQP

SMILES: COc1cc(N(C)c2ccnc3ccc(C(F)(F)F)cc23)cc(OC)c1OC
- % binding [1]: 100%

SMILES: Cc1cc([C@@H](C)Nc2ccccc2C(=O)O)c2nc(N3CCOCC3)cc(=O)n2c1 [AZD-6482]
- % of control [2]: 100%

SMILES: Cn1cc(-n2cnc3c(NCc4nc5cc(Cl)c(Cl)cc5[nH]4)nc(N4CCOCC4)nc32)cn1
- % of control [3]: 8.07%
- % of inhibition [4]: -11.6%
- % of control [5]: 6.33%

SMILES: Cc1cc(CN)cc(C)c1-c1ncn(C)c1-c1cncn1C
- % activity ([6]; at 1 µM): > 90%
- % activity ([6]; at 10 µM): > 80%

SMILES: CC[C@@H]1[C@H](F)C(=O)N[C@@H]1COc1nccc2cc(C(N)=O)c(OC)cc12 [ZIMLOVISERTIB]
- % of inhibition [7]: -14.1%
- % of inhibition ([8]; at 0.01 µM): 3.3%
- % of inhibition ([8]; at 0.04 µM): -7.4%
- % of inhibition ([8]; at 0.2 µM): -12%
- % of inhibition ([8]; at 1 µM): -7.7%
- % of inhibition ([8]; at 5 µM): -14.5%
- % of inhibition [9]: 0%

SMILES: CNC(=O)Nc1ccc(-c2nc(N3CC4CCC(C3)O4)c3cnn(C4CCC5(CC4)OCCO5)c3n2)cc1
- % of inhibition [10]: 5%

SMILES: Cc1cc(C)cc([C@@H]2c3cc(C)ccc3NC(=O)CN2C(=O)c2ccc(Br)s2)c1
- % of inhibition [11]: -19%

SMILES: Cc1cc(F)c(C(=O)Nc2cccc(-c3nncn3C(C)C)n2)cc1-n1cnc(C2CC2)c1
- % of control [12]: 100%

SMILES: C=CC(=O)Nc1cc(-n2c(=O)ccc3cnc4ccc(-c5ccc(NS(C)(=O)=O)cc5)cc4c32)ccc1C
- % of control ([13]; at 1 µM): 100%
- % of control ([13]; at 10 µM): 95%

SMILES: N#Cc1cccc(-c2c[nH]c3ncnc(N4CCOCC4)c23)c1
- % of control [14]: 100%
